Marks after values point to notes of the source that are not given here.
Columns and labels:
KB cells = assay: MTS cytotoxicity test with KB cells; format: cell-based; settings: Homo sapiens; KB cells, MTS; read-out: IC50 KB
Excerpt: (§1) Human cancer cell lines, unless otherwise noted, are obtained from the American Type Culture Collection (Rockville, Md.). The following drug-sensitive parental cell lines, and their derived drug-resistant counterparts, are obtained from the originators as listed: (a) S1 (parental line from a subclone of human colon carcinoma line LS174T) and derived S1-M1-3.2 (herein called S1-M1) which expresses the MXR drug transporter protein, are provided by Dr. L. Greenberger, Wyeth Research (Rabindran, S. K., He, H., Singh, M., Brown, E., Collins, K. I., Annable, T., and Greenberger, L. M. Reversal of a novel multidrug resistance mechanism in human colon carcinoma cells by fumitremorgin C. Cancer Res., 58:5850-5858,1998); (b) parental HL-60 human promyelocytic leukemia line and derived HL-60/ADR, which expresses the MRP1 drug transporter protein, are provided by Dr. M. Center, University of Kansas (McGrath, T., and Center, M. S. Adriamycin resistance in HL60 cells in the absence of detectable P-glycoprotein. Biochem. Biophys. […] J. Biol. Chem., 261: 7762-7770,1986) via Dr. L. Greenberger, Wyeth Research.
(§2) The assay, which is sold in kit form by Promega (Madison, Wis.; CellTiter 96 AQueous Non-Radioactive Cell Proliferation Assay), is based on the conversion by viable cells, but not by dead cells, of the tetrazolium salt, MTS (3-(4,5-dimethylthiazol-2-yl)-5-(3-carboxymethoxyphenyl)-2-(4-sulphophenyl)-2H-tetrazolium, inner salt), into a water-soluble colored formazan which is detected by spectrophotometry. Compounds are tested at nine concentrations, in order to determine IC50 values. For the test procedure, cells are harvested by trypsinization (or, in the case of non-adherent cells, by simple resuspension), washed, counted and distributed to wells of 96-well flat-bottom microtiter plates at 1000 cells per well in 200 μL of medium. In addition, one row of wells on a separate plate received cells as above (“time 0” plate). All plates are incubated at 37° in humidified 5% CO2 in air for about 24 hr.
(§3) On day 2, compounds for test are diluted and added to wells. Compounds are dissolved in DMSO at 10 mg/mL. For each compound, nine serial 2-fold dilutions are prepared in DMSO. Ten μL of each dilution in DMSO is transferred to 100 μL of medium, mixed well, and then 5 μL of this dilution is transferred in quadruplicate to wells containing cells. […] Plates are returned to the incubator for three days. At the time of drug addition to the experimental plates, the MTS assay is run on the “time 0” plate. This produced the “time 0 MTS value” which is related to the number of viable cells per well at the time of drug addition.
(§4) After three days of culture with test compounds (day 5 overall), the MTS assay is done on all wells of the experimental plates. The absorbance values of the quadruplicate sample wells are averaged and divided by the average of the “time 0” values. […] The nine values for each compound are plotted against concentration, and the concentration that produced a relative color yield half way between the maximum and minimum is taken as the IC50 value.
(§5) The KB lines express different amounts of the P-glycoprotein (MDR1) membrane pump which produces resistance to the action of many cytotoxic compounds, including paclitaxel and vincristine. The parental KB line expresses no P-glycoprotein, KB-8-5 expresses moderate levels of the protein, and KB-V1 expresses very high levels.

KB-8-5 cells = assay: MTS cytotoxicity test with KB-8-5 cells (moderate P-glycoprotein); format: cell-based, human; settings: for IC50: Homo sapiens, KB-8-5 cells, MTS, read-out: IC50 KB 8.5; for Ratio 8.5/KB: IC50 on KB 8.5 cells/IC50 on KB cells
Excerpt: as §1, §2, §3, §4, §5

KB-V1 cells = assay: MTS cytotoxicity test with KB-V1 cells (very high P-glycoprotein); format: cell-based, human; settings: for IC50: Homo sapiens, KB-V1 cells, MTS; for Ratio VI/KB: IC50 on KB VI cells/IC50 on KB cells
Excerpt: as §1, §2, §3, §4, §5

HL-60 cells = assay: MTS cytotoxicity test with HL-60 cells; format: cell-based; settings: Homo sapiens; HL-60 cells, MTS; read-out: IC50 HL-60
Excerpt: as §1, §2, §3, §4
(§6) HL-60/ADR cells overexpress the multidrug resistance protein MRP1 which mediates resistance to some chemotherapeutics (Gottesman, M. M., Fojo, T., and Bates, S. E. Multidrug resistance in cancer: role of ATP-dependent transporters. Nature Rev. Cancer, 2: 48-58, 2002). The IC50 values of representative examples of this invention, as well as reference compounds, on HL-60/ADR are compared to values on the sensitive parental HL-60 line.

HL-60/ADR cells = assay: MTS cytotoxicity test with HL-60/ADR cells (MRP1); format: cell-based, human; settings: for Ratio: IC50 on HL-60/ADR cells/IC50 on HL-60 cells
Excerpt: as §1, §2, §3, §4, §6

S1 cells = assay: MTS cytotoxicity test with S1 cells; format: cell-based; settings: Homo sapiens
Excerpt: as §1, §2, §3, §4
as §6, with “S1-M1” for “HL-60/ADR”, “MXR transporter” for “multidrug resistance protein MRP1”, “Miltidrug” for “Multidrug”, “S1” for “HL-60”

S1-M1 cells = assay: MTS cytotoxicity test with S1-M1 cells (MXR); format: cell-based, human; settings: for Ratio: IC50 on S1-M1 cells/IC50 on S1 cells
Excerpt: as §1, §2, §3, §4
as §6, with “S1-M1” for “HL-60/ADR”, “MXR transporter” for “multidrug resistance protein MRP1”, “Miltidrug” for “Multidrug”, “S1” for “HL-60”

COLO 205 cells = assay: MTS cytotoxicity test with COLO 205 cells; format: cell-based, human; settings: Homo sapiens, COLO 205, 72 h, 3 days
Outline: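 COLO 205 human colon carcinoma cells, 1000 per well, exposed 3 days at 37° C to nine 2-fold dilutions, typical final top concentration 5 μM. MTS absorbance normalized to time-0 plate; IC50 is concentration giving colour yield midway between untreated and fully killed controls.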

MAP-rich tubulin = assay: Tubulin polymerization test with MAP-rich tubulin; format: biochemical, bovine; settings: 0.3 μM compound, 20 min, fold enhancement over control
Procedure: Medium is RPMI-1640 with L-glutamine, supplemented with 10% heat-inactivated fetal calf serum, 100 units/ml penicillin, and 100 μg/ml streptomycin (Gibco, Grand Island, N.Y.). Microtubule-associated protein (MAP)-rich tubulin, containing about 70% tubulin and 30% MAPs (#ML113), and highly purified tubulin (>99% pure, #TL238), both from bovine brain, are obtained from Cytoskeleton, Inc., Denver, Colo. PEM buffer (80 mM piperazine-N,N′-bis[2-ethanesulfonic acid], pH 6.9, 1 mM ethylene glycol-bis(β-aminoethyl ether)-N,N,N′,N′-tetraacetic acid, 1 mM magnesium chloride) and guanosine 5′-triphosphate (GTP) are also obtained from Cytoskeleton. [3H]paclitaxel, specific activity 14.7 Ci/mmol, is purchased from Moravek Biochemicals (Brea, Calif.). [^3H]vinblastine, specific activity 9.60 Ci/mmol and MicroSpin G-50 columns are obtained from Amersham Biosciences (Piscataway, N.J.). […] Other reagents are obtained from Sigma (St. Louis, Mo.).
Two variations of this procedure are done, one using MAP-rich tubulin and one using pure tubulin.
MAP-rich tubulin is dissolved in ice-cold PEM buffer containing 1 mM GTP (GPEM buffer) at a concentration of 1.3 mg/mL. The solution is centrifuged at top speed in an Eppendorf model 5415C microcentrifuge (Brinkmann Instruments, Westbury, N.Y.) for 10 min at […] immediately before use. The tubulin solution is added to wells of a ½-area 96-well plate (Costar No. 3696, Corning, Inc., Corning, N.Y.) already containing the compounds of interest. Each compound is tested in duplicate at a final concentration of 0.3 μM in a volume of 110 μL per well. The final DMSO concentration in all wells is 0.3%. Control reactions, which received compound solvent only, are done in quadruplicate. The plate is put in a SpectraMax Plus plate reader (Molecular Devices Corp. Sunnyvale, Calif.) thermostated at 24° and the absorbance of each well at 340 nm, a measure of the appearance of turbidity due to tubulin polymer formation, is determined every minute for 60 minutes. The absorbance at time 0 for each well is subtracted from each of the subsequent absorbance readings for that well, and then the duplicates are averaged.
In this assay, control reactions with MAP-rich tubulin show an S-shaped absorbance profile characterized by three phases: first, a lag phase during which no change in absorbance occurs; second, a polymerization phase in which absorbance increases; and third, a plateau phase in which absorbance has reached a maximum and little or no further change occurs. Polymerization enhancers such as paclitaxel and docetaxel shorten or eliminate the lag phase, increase the rate of the polymerization phase, and often increase the height of the plateau. […] The compounds of this invention have a taxane-like effect on the polymerization reaction. This has been expressed quantitatively in Table 5 by dividing the mean A340 of each sample at 20 min by the mean A340 of the control at 20 min to give a fold enhancement over control. […] Examples of this invention have factors ranging up to 8.1, with the majority in the 5 to 6-fold range.

[1] = tested on: U87-MG Human Glioblastoma; assay: Human tumor xenograft test, U87-MG; format: in vivo, athymic mice
Procedure: (§7) The ability of compounds of this invention to inhibit tumor growth in animals is studied in the athymic mouse xenograft standard pharmacological test. Female nu/nu mice in an outbred albino background are obtained from Charles River Laboratories (Wilmington, Mass.). Animals are injected subcutaneously on the flank with the desired tumor cell suspension. Several days later, mice with tumors of approximately 150 mm^3 are selected from those injected (staged) and randomly distributed into groups of 5-10. The day of staging is called day 0. Compounds of the invention, usually formulated in saline (exceptions are noted in tables), are administered to animals by intravenous injection or oral gavage on various schedules starting on day 0 or 1, as noted in the tables. The control group in each experiment is dosed with vehicle on the same schedule. Tumor size is measured every 3-7 days with calipers in two orthogonal dimensions, and tumor volume is calculated from the formula volume=[(length×width^2)/2].
(§8) Tumor/Control (T/C) is obtained by dividing the mean tumor volume of the treated group by the mean tumor volume of the control group on each measurement day. A treatment dose is defined as active if it produced a statistically significant T/C of 0.50 or less. A p value≦0.05, determined by one-side Student's t-test, is required for statistical significance. A treatment dose is defined as toxic if more than 10% of the animals died from a compound-related toxicity.

[2] = tested on: DLD1 Human Colon Carcinoma; assay: Human tumor xenograft test, DLD1; format: in vivo; settings: DLD1, 20 mg/kg intravenously on days 1, 5, 9, and 13
Procedure: as §7, §8

[3] = U87-MG, 2.5 mg/kg PO, day 0, vehicle Klucel
[4] = U87-MG, 5 mg/kg PO, day 0, vehicle Klucel
[5] = U87-MG, 10 mg/kg PO, day 0, vehicle Klucel
[6] = U87-MG, 20 mg/kg PO, day 0, vehicle Klucel
[7] = U87-MG, 30 mg/kg PO, day 0, vehicle Klucel
[8] = U87-MG, 20 mg/kg PO, days 1, 5, 9

SMILES: CC[C@@]1(O)C(=O)OCc2c1cc1n(c2=O)Cc2cc3ccccc3nc2-1 [Camptothecin, reference compound]
- IC50 (KB cells): 24 nM
- IC50 (KB-8-5 cells): 33 nM
- Ratio 8.5/KB (KB-8-5 cells): 1.4
- IC50 (KB-V1 cells): 39 nM
- Ratio VI/KB (KB-V1 cells): 1.6
- IC50 (HL-60 cells): 12 nM
- IC50 (HL-60/ADR cells; Homo sapiens, HL60/ADR, HL-60/ADR cells, MTS, read-out: IC50 HL-60/ADR): 17 nM
- Ratio (HL-60/ADR cells): 1.4
- IC50 (S1 cells): 8.9 nM
- IC50 (S1-M1 cells; Homo sapiens, S1-M1 cells, MTS, read-out: IC50 S1-M1): 17 nM
- Ratio (S1-M1 cells): 1.9

SMILES: COc1cccc2c1C(=O)c1c(O)c3c(c(O)c1C2=O)C[C@@](O)(C(=O)CO)C[C@@H]3O[C@H]1C[C@H](N)[C@H](O)[C@H](C)O1 [Doxorubicin, reference compound]
- IC50 (KB cells): 23 nM
- IC50 (KB-8-5 cells): 70 nM
- Ratio 8.5/KB (KB-8-5 cells): 3.0
- IC50 (KB-V1 cells): > 3000 nM
- Ratio VI/KB (KB-V1 cells): >130
- Ratio VI/KB (KB-V1 cells; listed as doxorubicin): > 130
- IC50 (HL-60 cells): 23 nM
- Ratio (HL-60/ADR cells): 93
- IC50 (S1 cells): 34 nM
- Ratio (S1-M1 cells): 74

SMILES: CNCCCOc1cc(F)c(-c2c(Cl)nc3ncnn3c2N[C@@H](C)C(F)(F)F)c(F)c1 [Example 2, 5-Chloro-6-{2,6-difluoro-4-[3-(methylamino)propoxy]phenyl}-N-[(1S)-2,2,2-trifluoro-1-methylethyl][1,2,4]triazolo[1,5-a]pyrimidin-7-amine]
- IC50 (COLO 205 cells): 32 nM
- A340 Compound/A340 Control (MAP-rich tubulin): 5.8
- T/C on day 0 [1, 3]: 1.00
- T/C on day 4 [1, 3]: 0.84
- T/C on day 8 [1, 3]: 0.82
- T/C on day 11 [1, 3]: 0.74*
- T/C on day 14 [1, 3]: 0.74*
- T/C on day 0 [1, 4]: 1.02
- T/C on day 4 [1, 4]: 0.71*
- T/C on day 8 [1, 4]: 0.75*
- T/C on day 11 [1, 4]: 0.65**
- T/C on day 14 [1, 4]: 0.68**
- T/C on day 0 [1, 5]: 1.00
- T/C on day 4 [1, 5]: 0.60**
- T/C on day 8 [1, 5]: 0.51**
- T/C on day 11 [1, 5]: 0.40**
- T/C on day 14 [1, 5]: 0.41**
- T/C on day 0 [1, 6]: 0.97
- T/C on day 4 [1, 6]: 0.59**
- T/C on day 8 [1, 6]: 0.38**
- T/C on day 11 [1, 6]: 0.28**
- T/C on day 14 [1, 6]: 0.30**
- T/C on day 0 [1, 7]: 0.95
- T/C on day 4 [1, 7]: 0.41**
- T/C on day 8 [1, 7]: 0.24**
- T/C on day 11 [1, 7]: 0.19**
- T/C on day 14 [1, 7]: 0.23**
- tumor growth inhibition (activity call) [2]: active

SMILES: C[C@H](Nc1c(-c2c(F)cc(OCCCN3CCCC3)cc2F)c(Cl)nc2ncnn12)C(F)(F)F [Example 9, 5-Chloro-6-[2,6-difluoro-4-(3-pyrrolidin-1-ylpropoxy)phenyl]-N-[(1S)-2,2,2-trifluoro-1-methylethyl][1,2,4]triazolo[1,5-a]pyrimidin-7-amine]
- IC50 (COLO 205 cells): 44 nM
- A340 Compound/A340 Control (MAP-rich tubulin): 5.8
- T/C on day 0 [1, 8]: 1.04
- T/C on day 3 [1, 8]: 0.93
- T/C on day 7 [1, 8]: 0.70
- T/C on day 10 [1, 8]: 0.50**
- T/C on day 13 [1, 8]: 0.34**
- T/C on day 17 [1, 8]: 0.45**
- tumor growth inhibition (activity call) ([1]; U-87 MG, oral dosing, 20 mg/kg): active

Reference: patent publication US7507739B2, “6-[(substituted)phenyl]triazolopyrimidines as anticancer agents” (Wyeth, priority 2003, dated 2009)
